Results on 48 compounds are retold here after the Deep4Chem optical property database.

A short description of the data set: photoluminescence quantum yield (fraction); solvent given as SMILES.

In turn, `CCCCC(CC)COc1cc(OCC(CC)CCCC)c2c#cc3ccc4c(c3)c3cc(c#cc5cc(c#cc6ccc7c(c6)c6cc(c#cc1c2)ccc6n7CC(CC)CCCC)c(C(CCCC)OCCC)cc5C(CCCC)OCCC)ccc3n4CC(CC)CCCC` (stereo unspecified) registered a photoluminescence quantum yield (in ClCCl) of 0.32.

`COc1ccc(-c2ccc(-c3ccc(F)cc3)cc2)cc1` gave a photoluminescence quantum yield (in C1COCCO1) of 0.57.

With `CCCCCCCCC1(CCCCCCCC)c2cc(-c3ccc([N+](=O)[O-])cc3)ccc2-c2ccc(-c3ccc([N+](=O)[O-])cc3)cc21`, the photoluminescence quantum yield amounted to 0 (in C1CCCCC1); 0 (in CCO); 0.31 (in CN(C)C=O); 0.28 (in CS(C)=O); 0 (in Cc1ccccc1); 0.11 (in ClC(Cl)Cl).

Take `COCCOc1ccc(OCCOC)c(C=O)c1`: the photoluminescence quantum yield by setting is: (in CC(C)(C)O) 0.13; (in CC(C)CO) 0.21; (in CC(C)O) 0.21; (in CCCCO) 0.23; (in CCCO) 0.25; (in CCO) 0.2. For the same compound, the photoluminescence quantum yield runs as follows: (in CN(C)C=O) 0.03; (in CNC=O) 0.14; (in CO) 0.24; (in NC=O) 0.44; (in O) 0.11.

In the case of `Cc1ccc(C#Cc2ccc3nc4ccc(C#Cc5ccc(C)cc5)cn4c(=O)c3c2)cc1`, the photoluminescence quantum yield (in ClCCl) is 0.43.

As for `CCOC(=O)COc1ccc(/C=C/c2c(CC)c(C)c3n2[B-](F)(F)[N+]2=C(c4[nH]c(C)c(CC)c4C)c4ccccc4C2=C3C)cc1`, the photoluminescence quantum yield runs as follows: (in C1CCOC1) 0.28; (in CC#N) 0.09; (in CCCCCC) 0.74; (in CO) 0.2; (in Cc1ccccc1) 0.71; (in ClCCl) 0.68.

For the setting “in CC#N”, `Cc1c2ccc3c(C)[n+](C)ccc3c2cc[n+]1C` showed a photoluminescence quantum yield of 0.38.

For the compound `CCN(CC)c1ccc(/C=C/c2cc(/C=C/c3ccc(N(CC)CC)cc3)nc(N)n2)cc1`, the photoluminescence quantum yield turned out to be 0.72 (in Cc1ccccc1) and 0.61 (in ClC(Cl)Cl).

`CN(C)c1ccc2nc(-c3ccc(C(=O)O)cc3)sc2c1` showed a photoluminescence quantum yield (in C1CCCCC1) of 0.89; a photoluminescence quantum yield (in CC#N) of 0.86; a photoluminescence quantum yield (in CC(C)O) of 0.96; a photoluminescence quantum yield (in CO) of 0.84; a photoluminescence quantum yield (in CS(C)=O) of 0.98; a photoluminescence quantum yield (in ClC(Cl)Cl) of 0.96. In addition, the photoluminescence quantum yield (in c1ccccc1) amounted to 0.85.

`Cc1ccc(N(c2ccc(C)cc2)c2c3ccccc3c(N(c3ccc(C)cc3)c3ccc(C)cc3)c3ccccc23)cc1` yielded a photoluminescence quantum yield (in Cc1ccccc1) of 0.95.

Turning to `COc1ccc2n1[B-](F)(F)[N+]1=C(c3ccccc3)C=CC1=C2c1ccc(C)cc1`, the photoluminescence quantum yield came out at 0.28 (in C1CCCCC1); 0.3 (in C1CCOC1); 0.36 (in C1COCCO1); 0.28 (in CCOC(C)=O); 0.23 (in CO); 0.51 (in Cc1ccccc1). For the same compound, where the note is “in ClC(Cl)Cl”, the photoluminescence quantum yield amounted to 0.38.

In the case of `CCOC(=O)CC[N+]1=c2cc3c(cc2CCC1)=Cc1c(c2cc4c5c(c2oc1=O)CCCN5CCC4)O3`, the photoluminescence quantum yield is, setting by setting: (in CC#N) 0.024; (in CO) 0.017; (in ClCCl) 0.125; (in O) 0.002.

Regarding `CC1=C(C#Cc2ccccc2)C(C)=[N+]2C1=C(c1ccccc1)c1c(C)c(C#Cc3ccccc3)c(C)n1[B-]2(F)F`, the photoluminescence quantum yield is, setting by setting: (in C1CCOC1) 0.6; (in ClCCl) 0.82.

Consider `c1cnc(-c2c3ccccc3c(-c3cncnc3)c3ccccc23)nc1`, for which the photoluminescence quantum yield came to 0.61 (in CCO) and 0.78 (in ClCCl).

For the setting “in ClCCl”, `COc1ccc2cc(C3=[N+]4C(=Nc5c(-c6ccc7ccccc7c6)c(Br)c(-c6ccc7cc(OC)ccc7c6)n5[B-]4(F)F)C(c4ccc5ccccc5c4)=C3Br)ccc2c1` returned a photoluminescence quantum yield of 0.

In turn, `CCCCCCCCc1ccc(-n2c3c4ccccc4nc(-c4ccc(C#N)cc4)c3c3c2c2c(-c4ccc(C#N)cc4)nc4ccccc4c2n3-c2ccc(CCCCCCCC)cc2)cc1` had a photoluminescence quantum yield (in ClC(Cl)Cl) of 0.14.

For the setting “in ClC(Cl)Cl”, `COc1ccc(C2=Cc3c4ccccc4c4ccccc4[n+]3[B-](F)(F)O2)cc1` had a photoluminescence quantum yield of 0.678.

For the compound `COc1ccc2c3c(c4ccc(OC)cc4c2c1)C(C)(C)c1c-3ccc2ccccc12`, the photoluminescence quantum yield (in C1CCCCC1) was determined as 0.26.

For the setting “in Cc1ccccc1”, `CCCCOC(=O)c1cc(Cl)c2c3c(Cl)cc4c5c(cc(Cl)c(c6c(Oc7ccc(OC)cc7)cc(C(=O)OCCCC)c1c26)c53)C(=O)N(c1c(C(C)C)cccc1C(C)C)C4=O` had a photoluminescence quantum yield of 0.12.

`CC(C)(C)Nc1oc(C=Cc2ccccc2)c(C(=O)OC(C)(C)C)c1C(=O)OC(C)(C)C` showed a photoluminescence quantum yield (in CC#N) of 0.311.

For `CN(C)c1ccc(-c2ccc(-c3cc(-c4ccccc4)c(-c4ccccc4)c(-c4ccccc4)c3-c3ccccc3)s2)cc1`, the photoluminescence quantum yield (in ClC(Cl)Cl) came to 0.35.

Compound `CCCCCCCCCCCCN1C(=O)c2ccc3c4ccc5c6c(ccc(c7ccc(c2c37)C1=O)c64)C(=O)N(CCCCCCCCCCCC)C5=O` came in with a photoluminescence quantum yield (in CN(C)C=O) of 1.

Take `CN(C)c1ccc(C#CC2=C3CCc4ccccc4C3=[O+][B-](F)(F)O2)cc1`: the photoluminescence quantum yield (in ClCCl) was found to be 0.

Turning to `Fc1c(F)c(-n2c3ccccc3c3ccccc32)c(F)c(F)c1/C=C/C(=C(c1ccccc1)c1ccccc1)c1ccccc1`, the photoluminescence quantum yield (in Cc1ccccc1) is 0.001.

Where the note is “in ClC(Cl)Cl”, `N#CC(C#N)=Cc1ccc(-c2ccc(N(c3ccccc3)c3ccccc3)cc2)s1` showed a photoluminescence quantum yield of 0.18.

As to `CC1(C)C(=O)C=Cc2ccc(N)cc21`, the photoluminescence quantum yield (in O) was 0.14.

In the case of `Cc1ccc(N(c2ccc(C)cc2)c2ccc(-c3ccc(C=C(C#N)C#N)o3)cc2)cc1`, the photoluminescence quantum yield (in ClC(Cl)Cl) worked out at 0.1.

In turn, `CC(=O)c1ccc(-c2cc(C)[o+]c(C)c2)cc1` showed a photoluminescence quantum yield (in ClCCl) of 0.03.

`CCOC(=O)/N=c1/oc2c(OC)cccc2cc1C#N` returned a photoluminescence quantum yield (in ClCCl) of 0.0034.

Compound `C(=C\c1nc2c3ccccc3c3ccccc3c2o1)/c1ccccc1` came in with a photoluminescence quantum yield (in CC#N) of 0.23.

Compound `C/C=C/c1cccc(OC)c1` yielded a photoluminescence quantum yield (in CC#N) of 0.24 and a photoluminescence quantum yield (in CCCCCC) of 0.31.

Take `c1ccc2c(c1)oc1nc3oc4ccc(-n5c6ccccc6c6ccccc65)cc4c3cc12`: under “in ClC(Cl)Cl”, the photoluminescence quantum yield was determined as 0.074.

In turn, `CCCN1c2ccccc2Sc2cc(/C=C\c3cc(=O)oc4ccccc34)ccc21` displayed a photoluminescence quantum yield (in ClC(Cl)Cl) of 0.5.

With `F[B-]1(F)OC(c2ccc(C(F)(F)F)cc2)=Cc2cc(Cl)nc[n+]21`, the photoluminescence quantum yield came out at 0.01 (in C1CCOC1); 0.01 (in CC#N); 0.04 (in Cc1ccccc1); 0.01 (in ClC(Cl)Cl); 0.01 (in ClCCl).

Under “in ClCCl”, `CN(C)c1cccc(/C=C/c2ncc(-c3ccc(OCc4ccccc4)c(OCc4ccccc4)c3)o2)c1` returned a photoluminescence quantum yield of 0.37.

Regarding `COC(=O)c1[nH]c(-c2ccc(OC)cc2)c2nnc3ccc(OC)cc3c12`, under “in ClCCl”, the photoluminescence quantum yield was 0.282.

On to `CCCCCCc1ccc2c3c(ccc2c1)O[B-](F)(F)[N+](c1ccc([N+]2=Cc4c(ccc5cc(CCCCCC)ccc45)O[B-]2(F)F)cc1)=C3`, for which the photoluminescence quantum yield stood at 0.35 (in C1CCOC1), 0.3 (in CC#N), 0.43 (in Cc1ccccc1) and 0.44 (in ClCCl).

On to `CCN(CC)c1ccc2cc(/C(Cl)=C/C=C/C(=C(C#N)C#N)c3ccc(N(c4ccccc4)c4ccccc4)cc3)c(=O)oc2c1`, for which the photoluminescence quantum yield by setting is: (in CC(C)=O) 0.015; (in CCOC(C)=O) 0.028; (in CN(C)C=O) 0.002; (in CS(C)=O) 0.003; (in Cc1ccccc1) 0.098; (in ClCCl) 0.018.

As to `COc1ccccc1-c1nc(-c2ccccc2)c2ccccn12`, the photoluminescence quantum yield was 0.38 (in CC#N) and 0.385 (in ClCCl).

Take `CNC(=O)[C@H](C)NC(=O)c1cccc2c1C#Cc1c(NC(=O)[C@@H](NC(C)=O)C(C)C)cccc1OCCCO2`: the photoluminescence quantum yield came out at 0.02 (in CC#N) and 0.03 (in ClCCl).

In turn, `F[B-]1(F)OC(c2ccc(Br)cc2)=Cc2c3ccccc3c3ccccc3[n+]21` displayed a photoluminescence quantum yield (in ClC(Cl)Cl) of 0.152.

For the setting “in ClCCl”, `CCCCCCCCCCCCN1C(=O)c2c(c3ccc4cc(-c5ccc(F)cc5)c(OC)cc4c3c3c2ccc2cc(-c4ccc(F)cc4)c(OC)cc23)C1=O` registered a photoluminescence quantum yield of 0.153.

In the case of `CCOCCOCCOC(=O)/C=C/C1=CC2=C(c3c(C)cc(C)cc3C)c3cccn3[B-](F)(F)[N+]2=C1`, the photoluminescence quantum yield (in ClCCl) came to 0.35.

`CC(C)(C)OC(=O)/C=C/C1=CC2=C(c3ccccc3)c3cccn3[B-](F)(F)[N+]2=C1`: the photoluminescence quantum yield (in ClCCl) worked out at 0.1.

Compound `F[B-]1(F)n2c(cc3sc4ccccc4c32)C(c2ccc(I)cc2)=C2C=c3sc4ccccc4c3=[N+]21` showed a photoluminescence quantum yield (in ClC(Cl)Cl) of 0.05.

In the case of `CCCCc1cc(-c2cccc(COC)c2)oc1-c1cccc(-c2cc(CCCC)c(-c3cccc(-c4oc(-c5cccc(-c6oc(-c7cccc(COC)c7)cc6CCCC)c5)cc4CCCC)c3)o2)c1`, the photoluminescence quantum yield (in ClC(Cl)Cl) came out at 0.23.

With `COc1cc2c(cc1-c1ccc(Cl)cc1)Cc1c3c(c4c(c1-2)-c1cc(OC)c(-c2ccc(Cl)cc2)cc1C4)C(=O)N(CCC(C)C)C3=O`, the photoluminescence quantum yield (in C1CCOC1) turned out to be 0.52.

Take `COc1ccc(/C=C/C2=CC(/C=C/c3ccc(OC)cc3)=[N+]3C2=C(c2ccc(-c4ccc5ccccc5n4)s2)c2c(/C=C/c4ccc(OC)cc4)cc(/C=C/c4ccc(OC)cc4)n2[B-]3(F)F)cc1`: where the note is “in C1COCCO1”, the photoluminescence quantum yield was determined as 0.36.
